≈ marks a conversion by molar mass, not a printed value. Where a name gives a salt, the structure may show the parent alone.
How the values were obtained:
Hep-2 cells = experiment: MTT antiproliferative activity assay, Hep-2; assay type: cell-based; settings: Homo sapiens, HEp-2; MTT, 48 h treatment, average of three replicates; read-out: IC50 Hep-2
Experimental: (§1) Hep-2 (larynx carcinoma, ATCC: CCL-23), MCF-7 (breast epithelial adenocarcinoma, ATCC: HTB-22), and Vero (African green monkey kidney, ATCC: CCL-81) cell lines were kindly provided by Dr. Mona Hassuneh (Department of Biological Sciences, University of Jordan). Cells were grown in Minimum Essential Medium Eagle (Gibco, Paisley UK) supplemented with 10% heat inactivated fetal bovine serum (Gibco, Paisley UK), 29 μg/mL L-glutamine, and 40 μg/mL gentamicin. Cells were incubated in a humidified atmosphere of 5% CO2 at 37 °C.
(§2) The antiproliferative activity of Inula viscosa compounds was measured using the MTT (3-(4,5-dimethylthiazol-2-yl)-2,5-diphenyltetrazolium bromide) assay (Promega, Madison, WI, USA). The assay detects the reduction of MTT by mitochondrial dehydrogenase to blue formazan product, which reflects the normal function of mitochondria and cell viability. Exponentially growing cells were washed and seeded at 17,000 cells/well for Hep-2 cell line and 11,000 cells/ well for MCF-7 cell line (in 200 μL of growth medium) in 96 well microplates (Nunc, Roskilde, Denmark). After 24 h incubation, a partial monolayer was formed then the media was removed and 200 μL of the medium containing the compound (initially dissolved in DMSO) were added and re-incubated for 48 h. Then 100 μL of the medium were aspirated and 15 μL of the MTT solution were added to the remaining medium (100 μL) in each well. After 4 h contact with the MTT solution, blue crystals were formed. One hundred μL of the stop solution were added and incubated further for 1 h.
(§3) Reduced MTT was assayed at 550 nm using a microplate reader (Biotek, Winooski, VT, USA). Control groups received the same amount of DMSO (0.1%).Untreated cells were used as a negative control while, cells treated with vincristine sulfate were used as a positive control. Eight concentrations (150, 100, 50, 20, 10, 5, 2, and 1 μg/mL) were prepared from each compound and tested against the three cell lines. IC50 values were calculated as the concentrations that show 50% inhibition of proliferation on any tested cell line. Stock solutions of the compounds were dissolved in (DMSO) then diluted with the medium and sterilized using 0.2 μm membrane filters. The toxicity of DMSO was determined and the final dilution of compounds used for treating the cells contained not more than 0.1% (non toxic concentration) DMSO. IC50 values were reported as the average of three replicates. The antiproliferative effect of the tested compounds was determined by comparing the optical density of the treated cells against the optical density of the control (cells treated with media containing 0.1% DMSO).

MCF-7 cells [1] = experiment: Scanning electron microscopy of MCF-7 cells; assay type: cell-based, human; settings: 15 µg/mL compound (vincristin sulfate 40 nM), 48 h
Experimental: MCF-7 cells were cultured in complete DMEM containing either 15 µg/mL of 3-O-methylquercetin or 3,3′-di-O-methylquercetin and incubated for 48 h in humidified CO2 incubator. Negative control cells were incubated with complete DMEM and positive control cells received complete DMEM containing 40 nM vincristin sulfate. Treated cells were fixed with 3% glutaraldehyde for 1.5 h followed by osmium tetroxide (2% in PBS) for 1 h. After fixation, cells were washed in PBS and sequentially dehydrated using 30%, 70%, and 100% ethanol. Fixed cells were attached to a metal stubs and sputter coated with platinum by using Emitech K550X coating unit (Qourum Technology, West Sussex, UK). The coated specimens were viewed using Inspect F50/FEG scanning electron microscope (FEI, Eindhoven, The Netherlands) at accelerating voltage of 2–5 kV. Bacillus cereus cells treated with 3,3′-di-O-methylquercetin for 24 h were collected by centrifugation and washed with sodium phosphate buffer. Following that, the samples were fixed in 2.5% glutaraldehyde in 0.1 M phosphate buffer, pH 7.3, at 4 °C overnight, and postfixed in 1% osmium tetroxide in the phosphate buffer for 1 h at room temperature. Bacterial cells were dehydrated with sequential ethanol concentrations (30–100%) and coated for the observations under scanning electron microscope.

Escherichia coli = experiment: Microtiter plate dilution MIC, E. coli; assay type: cell-based; settings: Escherichia coli, ATCC10798; ATCC 10798, 24 h, 100% inhibition; read-out: Minimum inhibitory concentration (MIC) E.c
Experimental: (§4) The microbial strains used in this study were Escherichia coli (ATCC 10798), Salmonella typhimurium (ATCC14028), Methicillin resistant Staphylococcus aureus (MRSA, Clinical isolate), Bacillus cereus (Toxigenic strain TS), and Candida albicans (ATCC 90028). Bacterial strains were stocked onto nutrient agar slant at 4 °C, and Candida albicans was stocked onto malt agar slant at 4 °C.
(§5) The microtiter plate dilution method was used to determine the MIC (minimum inhibitory concentration) of compounds under study. Sterile 96-well microplates (Nunc) were used for the assay. Stock compounds were dissolved in DMSO so that the final concentrations in micro wells were less than 1% DMSO and solvent controls were run at these concentrations. Positive controls of penicillin G and tetracycline (Oxoid, Hampshire, UK) were prepared at the following concentrations 2, 4, 8, 16, 31, 62.5, 125, and 250 μg/mL. 1% DMSO was used as a solvent control. Compounds were diluted to twice the desired initial test concentration (250 µg/mL) with Muller Hinton broth (MHB) (Oxoid). All wells, except the first were filled with MHB (50 μL). Compounds (100 μL) were added to the first well and serial two-fold dilutions were made down to the desired minimum concentration (2 μg/mL). An over-night culture of bacteria suspended in MHB was adjusted to turbidity equal to 0.5 McFarland standard. The plates were inoculated with bacterial suspension (50 μL/well) and incubated at 37 °C for 24 h. Then the turbidity was measured using micro-plate reader (Biotek) at 620 nm wavelength. The same procedure was used to determine the antifungal activity of compounds against Candida albicans. The medium used was malt extract broth. The yeast cells were suspended in 0.85% saline, with an optical density equivalent to 0.5 McFarland standard, and diluted 1:100 in malt extract broth to obtain the working concentration. After 24 h incubation with each compound, the turbidity was measured at 530 nm wavelength using a spectrophotometer (Biotek). Percentage inhibition for tested microorganisms was calculated using the following formula:
(§6) MIC was determined as the lowest concentration of the compound that causes complete inhibition (100%) of each microorganism.

[2] = system: Methicillin resistant Staphylococcus aureus (MRSA); experiment: Microtiter plate dilution MIC, MRSA; assay type: cell-based; settings: Staphylococcus aureus, MRSA; clinical isolate, 24 h, 100% inhibition; read-out: Minimum inhibitory concentration (MIC) MRSA
Experimental: as §4, §5, §6

MCF-7 cells [3] = experiment: MTT antiproliferative activity assay, MCF-7; assay type: cell-based, human; settings: Homo sapiens, MCF7; MTT, 48 h treatment, average of three replicates; read-out: IC50 MCF-7
Experimental: as §1, §2, §3

Bacillus cereus [4] = experiment: Microtiter plate dilution MIC, B. cereus; assay type: cell-based; settings: Bacillus cereus; Toxigenic strain TS, 24 h, 100% inhibition; read-out: Minimum inhibitory concentration (MIC) B.c
Experimental: as §4, §5, §6

MCF-7 cells [5] = experiment: TUNEL colorimetric apoptosis assay; assay type: cell-based, human; settings: 15 µg/mL, 28 h, compared with untreated cells
Experimental: Apoptosis was detected using terminal deoxynucleotidyl transferase (TdT) mediated-16-deoxyuridine triphosphate (dUTP) Nick-End Labelling (TUNEL) system (Promega, Madison, WI, USA). MCF-7 cells cultured in 24 well plates were treated with 15 µg/mL of either 3-O-methylquercetin or 3,3′-di-O-methylquercetin for 28 h. The assay was conducted according to the manufacturer's instructions. Briefly, treated cells were fixed using 10% formalin followed by washing with phosphate buffer saline (PBS). Cells were then permeabilized using 0.2% triton X-100. Biotinylated dUTP in rTdT reaction mixture was added to label the fragmented DNA at 37 °C for one hour, followed by blocking endogenous peroxidases using 0.3% hydrogen peroxide. Streptavidin HRP (1:500 in PBS) was added and incubated at room temperature for 30 min. Finally, hydrogen peroxide and chromagen diaminobenzidine were used to visualize nuclei with fragmented DNAs under the light microscope (Novex, Arnhem, Holland). Cells treated with 40 nM vincristine sulfate were used as a positive control while untreated cells were used as a negative control.

Candida albicans = experiment: Microtiter plate dilution MIC, C. albicans; assay type: cell-based; settings: Candida albicans, ATCC90028; ATCC 90028, malt extract broth, 24 h, 100% inhibition; read-out: Minimum inhibitory concentration (MIC) C.a
Experimental: as §4, §5, §6

Salmonella typhimurium = experiment: Microtiter plate dilution MIC, S. typhimurium; assay type: cell-based; settings: Salmonella enterica, ATCC 14028 / TYPHIMURIUM; ATCC14028, 24 h, 100% inhibition; read-out: Minimum inhibitory concentration (MIC) S.t
Experimental: as §4, §5, §6

Vero cells = experiment: MTT antiproliferative activity assay, Vero; assay type: cell-based, African green monkey; settings: Chlorocebus sabaeus, Vero; MTT, 48 h treatment, average of three replicates; read-out: IC50 Vero
Experimental: as §1, §2, §3

Bacillus cereus [6] = settings: cited from earlier work; for MIC against Bacillus cereus: previous studies ref 31

| IC50 (MCF-7 cells [3]) | Molecule | IC50 (Hep-2 cells) | Cytomorphological alterations (scanning electron microscopy) (MCF-7 cells [1]) | IC50 (Vero cells) | MIC against Bacillus cereus (Bacillus cereus [6]) | also measured |
| --- | --- | --- | --- | --- | --- | --- |
| 11.2 ± 1.93 µg/mL (≈ 35.5 µM) | COc1c(-c2ccc(O)c(O)c2)oc2cc(O)cc(O)c2c1=O [3-O-Methylquercetin] | 26.1 ± 2.18 µg/mL (≈ 82.6 µM) | cell shrinkage, membrane blebbing, loss of contact with neighboring cells, and formation of apoptotic bodies | > 150 µg/mL |  | MIC (Escherichia coli): > 250 µg/mL; MIC [2]: > 250 µg/mL; MIC (Bacillus cereus [4]): 125 µg/mL (≈ 395 µM); Apoptosis induction (DNA fragmentation, TUNEL) (MCF-7 cells [5]): increase in the number of apoptotic cells with fragmented DNA; MIC (Candida albicans): 250 µg/mL (≈ 790 µM); MIC (Salmonella typhimurium): 125 µg/mL (≈ 395 µM) |
| 10 ± 1.34 µg/mL | CC[C@]1(O)C[C@H]2CN(CCc3c([nH]c4ccccc34)[C@@](C(=O)OC)(c3cc4c(cc3OC)N(C=O)[C@H]3[C@@](O)(C(=O)OC)[C@H](OC(C)=O)[C@]5(CC)C=CCN6CC[C@]43[C@@H]65)C2)C1 [Vincristine sulfate, reference compound] | > 90 µg/mL | morphological changes similar to those observed in cells treated with either 3-O-methylquercetin or 3,3′-di-O-methylquercetin | > 90 µg/mL |  |  |
|  | O=c1c(O[C@H]2OC[C@@H](O)[C@@H](O)[C@@H]2O)c(-c2ccc(O)c(O)c2)oc2cc(O)cc(O)c12 [quercetin-3-O-arabinoside] |  |  |  | 350 µg/mL (≈ 806 µM) |  |
|  | O=c1c(O)c(-c2ccc(O)c(O)c2)oc2cc(O)cc(O)c12 [quercetin] |  |  |  | 350 µg/mL (≈ 1160 µM) |  |
|  | Quercetin-3-O-glycoside |  |  |  |  | Inhibition of Bacillus cereus (concentration) (Bacillus cereus [6]; previous studies ref 32): 50 µg/mL |

Source: PMC6268972, “Antiproliferative, Antimicrobial and Apoptosis Inducing Effects of Compounds Isolated from Inula viscosa” (Molecules, 2012)
